The text below walks through data of ChEMBL document CHEMBL1201862, “PubChem BioAssay data set” (2004).

Molecules are shown by their SMILES.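 Exposure lasted 48 hours, with cells grown in 96-well plates and compounds tested at five concentrations. GI50 is the concentration that inhibits growth by half.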 Active and inactive are the calls of the source. No stated cut-off is given here; in the data, active = GI50 up to about 1.1 µM and inactive = higher.

Holding throughout (assay): NCI anticancer screen, dose series, 48 h
The test system of experiment [1] is 786-0.
Experiment [2] deals with A549.
Experiment [3] has as its system DMS-273.
Experiment [4] deals with HCT-15.
For experiment [5], the system named is HOP-62.
Experiment [6] deals with MDA-MB-231.
The test system of experiment [7] is MDA-N.
For experiment [8], the system named is Malme-3M.
The test system of experiment [9] is NCI-H226.
Experiment [10] deals with NCI-H460.
The subject of experiment [11] is NCI-H522.
Experiment [12] relates to OVCAR-5.
Experiment [13] relates to OVCAR-8.
In experiment [14] the test system is SF-295.
The subject of experiment [15] is SNB-19.
The subject of experiment [16] is SNB-75.
The subject of experiment [17] is SR.
The subject of experiment [18] is SW-620.
Experiment [19] deals with UACC-62.
For experiment [20], the system named is UO-31.

Regarding `Cc1cc(/N=C2\C=C(Nc3cc(C)on3)C(=O)c3ccccc32)no1`, the GI50 in experiment [1] was 38100 nM (inactive); in experiment [2], 31200 nM (inactive); in experiment [3] it was 80400 nM (inactive); in experiment [4] it was 48100 nM; in [5], > 61100 nM (inactive); in experiment [6], 12900 nM (inactive). Besides, the GI50 in [7] is 1960 nM (inactive); in [8], 21500 nM (inactive); in experiment [9] it was > 92000 nM (inactive); in experiment [10], > 67800 nM (inactive); in [11], > 100000 nM (inactive); in experiment [12] it was > 76000 nM (inactive). Further, the GI50 in [13] was 37300 nM (inactive); in experiment [14], 46500 nM (inactive); in [15], 61000 nM (inactive); in [16] it was 31600 nM (inactive); in experiment [17], > 100000 nM (inactive); in experiment [18], > 100000 nM (inactive). For the same compound, the results for the GI50 in experiment [19] and in experiment [20] were 12000 nM (inactive) and 43700 nM (inactive), respectively.

Regarding `CC1OC(OC2CC(O)(C(=O)CO)Cc3c(O)c4c(c(O)c32)C(=O)c2ccccc2C4=O)CC(N)C1O` (stereo not given), the GI50 is < 10 nM (active) in [1]; < 10 nM (active) in experiment [2]; < 10 nM (active) in [3]; 70.8 nM in experiment [4]; < 10 nM (active) in experiment [5]; 431 nM (active) in experiment [6]. The GI50 is 65.2 nM (active) in experiment [7]; < 10 nM (active) in experiment [8]; < 10 nM (active) in [9]; < 10 nM (active) in experiment [10]; < 18.3 nM (active) in experiment [11]; 24.2 nM (active) in [12]. Further, the GI50 in experiment [13] was 17.1 nM (active); in experiment [14], < 10 nM (active); in experiment [15], < 10 nM (active); in experiment [16], < 13.7 nM (active); in [17], < 10 nM (active); in [18] it was < 10 nM (active). For the same compound, the GI50 in experiment [19] was 10.1 nM (active); in [20], 23.2 nM (active).
